Data: patent publication US7498304B2, “Angiogenesis-modulating compositions and uses” (Curis, Inc., priority 2002, dated 2009)

These molecules were tested on Hedgehog pathway signaling (Shh-induced Gli-transcription) in 10T1/2(s12) cells (assay: Gli-Luc assay, OCT-SHH-induced luciferase reporter). Conditions: Gli-Luc response, OCT-SHH 0.3 μg/ml.
Format: cell-based, mouse
Protocol: Compounds to be tested are dissolved in DMSO to a concentration of 10 mM, and stored at −20° C. To activate the Hedgehog pathway in the assay cells, an octylated (lipid-modified) form of the N-terminal fragment of the Sonic Hedgehog protein (OCT-SHH) is used. This N-terminal SHH fragment is produced bacterially.
Compounds may be tested in the “Gli-Luc” assay below, using the cell line 10T(s12), wherein the cells contain a Hedgehog-responsive reporter construct utilizing Luciferase as the reporter gene. In this way, Hedgehog pathway signaling activity can be measured via the Gli-Luc response.
10t1/2(s12) cells are plated in a 96-well micro-titer plate (MTP) at 20,000 cells/well in full medium [DMEM with 10% FBS]. Then plates are placed in the incubator for incubation overnight (O/N), at 37° C. and 5% CO2. After 24 h, the medium is replaced with Luciferase-assay medium (DMEM with 0.5% FBS). Compounds are thawed and diluted in assay medium at 3:1000 (about 300-fold) resulting in a starting concentration of about 30 μM.
Subsequently, 150 μl of each 30 μM sample is added to the first wells (in triplicate). The MTP samples are then diluted at 3-fold dilutions to a total of seven wells, ultimately resulting in a regiment of seven dilutions in triplicate, for each compound. Next, the protein ligand OCT-SHH is diluted in Luciferase-assay medium and added to each well at a final concentration of 0.3 μg/ml. Plates are then returned to the incubator for further incubation O/N, at 37° C. and 5% CO2. After about 24 h, plates are removed from the incubator and the medium is aspirated/discarded. Wells are washed once with assay buffer [PBS+1 mM Mg^2+ and 1 mM Ca^2+]. Then 50 μl of assay buffer is added to each well. The Luciferase assay reagent is prepared as described by the vendor (LucLite kit from Packard), and 50 μl is added to each well. Plates are incubated at room temperature (RT) for about 30 minutes after which the signals are read, again at RT, on a Topcount (Packard).
The discovery of compounds that inhibit Shh-induced Gli-transcription exemplifies the utility of the claims in this patent.

| Molecule | IC50 [µM] |
| --- | --- |
| CC(c1nc2ccccc2c(=O)n1-c1ccc(F)cc1)N1CCN(C(=O)Nc2ccc(Cl)c(Cl)c2)CC1 (stereo not drawn) [Compound 43] | < 10 |
| CCCN(CCC(=O)NC1CCCc2ccccc21)C(=O)c1cc(OC)cc(OC)c1 (stereo not drawn) [Compound 47] | < 5 |
| CCC(c1nc2ccccc2c(=O)[nH]1)N1CCN(C(=O)Nc2ccc(Cl)c(Cl)c2)C(C)C1 (stereo not drawn) [Compound 45] | < 5 |
| CCCN(C(=O)Nc1cccc(OC)c1)C(C)c1nc2ccccc2c(=O)n1-c1ccc(F)cc1 (stereo not drawn) [Compound 38] | < 5 |
| CCCCCCCCC(=O)N(CCCCC)C(C)c1nc2ccccc2c(=O)n1-c1ccccc1 (stereo not drawn) [Compound 41] | < 10 |
| CC(c1nc2ccccc2c(=O)n1-c1ccc(F)cc1)N(C)C(=O)Nc1cccc(SC(F)(F)F)c1 (stereo not drawn) [Compound 52] | < 1 |
| CC(c1nc2ccccc2c(=O)n1-c1ccc(F)cc1)N(C)C(=O)Nc1cccc(C#N)c1 (stereo not drawn) [Compound 51] | < 5 |
| O=C(Cc1cccc(C(F)(F)F)c1)NCCc1nc2ccccc2c(=O)n1-c1ccc(F)cc1 [Compound 50] | < 1 |
| Cc1c(NC(=O)N(C)C(C)c2nc3ccccc3c(=O)n2-c2ccc(F)cc2)cccc1[N+](=O)[O-] (stereo not drawn) [Compound 59] | < 5 |
| CCC(=O)N1CCN(C(CC)c2nc3ccccc3c(=O)n2-c2ccc(C)cc2)C(C)C1 (stereo not drawn) [Compound 42] | < 5 |
| O=C(NCc1nc2ccccc2c(=O)n1-c1ccc(F)cc1)Nc1cccc(C(F)(F)F)c1 [Compound 44] | < 1 |
| CC(c1nc2ccccc2c(=O)n1-c1ccc(F)cc1)N(C)C(=O)Nc1ccc(C(F)(F)F)cc1 (stereo not drawn) [Compound 54] | < 5 |
| O=C(NCc1nc2ccccc2c(=O)n1-c1ccc(F)cc1)Nc1ccc(Cl)c([N+](=O)[O-])c1 [Compound 69] | < 0.5 |
| O=C(NCc1nc2ccccc2c(=O)n1-c1ccc(F)cc1)Nc1ccc(Cl)c(Cl)c1 [Compound 68] | < 1 |
| O=C(NCc1nc2ccccc2c(=O)n1-c1ccc(F)cc1)Nc1cc(Cl)nc(Cl)c1 [Compound 6] | < 0.5 |
| CC(c1nc2ccccc2c(=O)n1-c1ccc(F)cc1)N(Cc1ccco1)C(=O)Nc1cccc(F)c1 (stereo not drawn) [Compound 31] | < 10 |
| CC(c1nc2ccccc2c(=O)n1-c1ccc(F)cc1)N(C)C(=O)Nc1ccc([N+](=O)[O-])c(C(F)(F)F)c1 (stereo not drawn) [Compound 32] | < 5 |
| O=C(NCCCc1nc2ccccc2c(=O)n1-c1ccc(F)cc1)Nc1cccc(C(F)(F)F)c1 [Compound 74] | < 5 |
| CCC(c1nc2ccccc2c(=O)n1-c1ccc(C)cc1)N(CCc1ccccc1)C(=O)CCCCF (stereo not drawn) [Compound 39] | < 5 |
| CC(c1nc2ccccc2c(=O)n1-c1ccc(F)cc1)N(C)C(=O)Nc1cccc(C(F)(F)F)c1 (stereo not drawn) [Compound 11] | < 5 |
| Cc1c(NC(=O)NCc2nc3ccccc3c(=O)n2-c2ccc(F)cc2)cccc1SC(F)(F)F [Compound 67] | < 5 |
| CC(c1nc2ccccc2c(=O)n1-c1ccc(F)cc1)N(C)C(=O)Nc1ccc(Cl)c(Cl)c1 (stereo not drawn) [Compound 53] | < 1 |

| Molecule | IC50 [µM] |
| --- | --- |
| CCC(C)N(CCC(=O)NC1CCCc2ccccc21)C(=O)c1cccc2ccccc12 (stereo not drawn) [Compound 48] | < 0.5 |
| CCC(c1nc2ccccc2c(=O)[nH]1)N1CCN(C(=O)c2ccc(-c3ccccc3)cc2)C(C)C1 (stereo not drawn) [Compound 46] | < 0.5 |
| CC(c1nc2ccccc2c(=O)n1-c1ccc(F)cc1)N(C)C(=O)Nc1cccc(F)c1 (stereo not drawn) [Compound 55] | < 5 |
| CC(c1nc2ccccc2c(=O)n1-c1ccc(F)cc1)N(C)C(=O)Nc1ccc([N+](=O)[O-])c(Cl)c1 (stereo not drawn) [Compound 62] | < 1 |
| CC(c1nc2ccccc2c(=O)n1-c1ccc(F)cc1)N(C)C(=O)Nc1ccc(Cl)c(C(F)(F)F)c1 (stereo not drawn) [Compound 61] | < 1 |
| CCOOC(=O)c1cccc(NC(=O)N(C)C(C)c2nc3ccccc3c(=O)n2-c2ccc(F)cc2)c1 (stereo not drawn) [Compound 65] | < 10 |
| CCCN(C(=O)Nc1cccc(C(F)(F)F)c1)C(C)c1nc2ccccc2c(=O)n1-c1ccc(F)cc1 (stereo not drawn) [Compound 36] | < 5 |
| CC(C)c1cccc(NC(=O)N(C)C(C)c2nc3ccccc3c(=O)n2-c2ccc(F)cc2)c1 (stereo not drawn) [Compound 57] | < 10 |
| CC(c1nc2ccccc2c(=O)n1-c1ccc(F)cc1)N(C)C(=O)Nc1cc(Cl)nc(Cl)c1 (stereo not drawn) [Compound 58] | < 5 |
| O=C(NCc1nc2ccccc2c(=O)n1-c1ccc(F)cc1)Nc1ccc(Cl)c(C(F)(F)F)c1 [Compound 5] | < 0.1 |
| CC(c1nc2ccccc2c(=O)n1-c1ccc(F)cc1)N(C)C(=O)Nc1ccc(Cl)cc1[N+](=O)[O-] (stereo not drawn) [Compound 66] | < 10 |
| CC(c1nc2ccccc2c(=O)n1-c1ccc(F)cc1)N(C)C(=O)Nc1ccc([N+](=O)[O-])cc1Cl (stereo not drawn) [Compound 64] | < 10 |
| CCOC(=O)c1ccccc1NC(=O)N(C)C(C)c1nc2ccccc2c(=O)n1-c1ccc(F)cc1 (stereo not drawn) [Compound 63] | < 10 |
| O=C(Nc1cccc(C(F)(F)F)c1)NC(c1nc2ccccc2c(=O)n1-c1ccc(F)cc1)C1CC1 (stereo not drawn) [Compound 75] | < 5 |
| CCC(C)N(CCC(=O)NC1CCCc2ccccc21)C(=O)COc1ccc(Cl)cc1 (stereo not drawn) [Compound 49] | < 1 |
| CC(NC(=O)Nc1cccc(C(F)(F)F)c1)c1nc2ccccc2c(=O)n1-c1ccc(F)cc1 (stereo not drawn) [Compound 73] | < 5 |
| CC(c1nc2ccccc2c(=O)n1-c1ccc(F)cc1)N(C)C(=O)Nc1ccc(-c2ccccc2)cc1 (stereo not drawn) [Compound 56] | < 10 |
| COc1cccc(NC(=O)NCc2nc3ccccc3c(=O)n2-c2ccc(F)cc2)c1C [Compound 71] | < 10 |
| CCCN(C(=O)Nc1cccc(Cl)c1)C(C)c1nc2ccccc2c(=O)n1-c1ccc(F)cc1 (stereo not drawn) [Compound 34] | < 5 |
| CC(c1nc2ccccc2c(=O)n1-c1ccc(F)cc1)N(C)C(=O)Nc1ccc(SC(F)(F)F)cc1 (stereo not drawn) [Compound 60] | < 5 |
| CCCCc1ccc(C(=O)N(Cc2ccccc2)C(CC)c2nc3ccccc3c(=O)n2-c2ccc(C)cc2)cc1 (stereo not drawn) [Compound 40] | < 10 |

The molecules below were run on mouse cornea (assay: mouse corneal pocket model of angiogenesis). Conditions: Ptc1-lacZ corneas.
Format: in vivo
Protocol: To confirm the angiogenic activity of hedgehog in another well accepted model of angiogenesis, we tested the ability of hedgehog protein to induce neovascularization in the mouse corneal model pocket model of angiogenesis.
Animals were anesthetized by pentobarbital intraperitoneal injection (160 mg/kg). Corneal pockets were created in the eyes of each mouse and a 0.34×0.34 mm sucrose albumin sulfate (Bukh Meditec, Vaerlose, DK) pellet coated with hydron polymer type NCC (Interferon Sciences, New Brunswick, N.J.) containing 1 of the agents indicated below was implanted into the corneal pocket. […] mice were divided into 5 groups: control buffer alone; VEGF 300 ng/pellet; Myr-Shh vehicle alone; Myr-Shh 1.5 microg/pellet […]; Myr-Shh+VEGF (1.5 microg/pellet +300 ng/pellet, respectively). Pellets were positioned 1.0 mm from the corneal limbus, and erythromycin ophthalmic ointment (E. Fourera) was applied to each operated eye. The corneas of all mice were routinely examined by slit-lamp biomicroscopy on postoperative day 6 after pellet implantation.
On the same day vessel length and corneal circumferential neovascularity (in degrees) were measured. After completing these measurements, C57BL/6J mice received an intravenous injection of […] of BS-1 lectin FITC-conjugated (Vector Laboratories, Burlingame, Calif.). Thirty minutes later, the animals were sacrificed. The eyes were enucleated and fixed in 1% paraformaldehyde solution. After fixation, the corneas were placed on glass slides and examined by fluorescence microscopy.
To determine the mechanism by which Shh induces angiogenesis both Shh and VEGF-stimulated corneas (see Example 3) were excised and X-gal stained as described in Example 1 after fixation of the whole eye for 1 hour in 1% paraformaldehyde followed by enucleation and fixation of the corneal hemisphere in 1% paraformaldehyde for 30 minutes. […] Endothelial cell immunostaining was done with a rat monoclonal antibody against mouse CD-31 (Pharmigen, San Diego, Calif.) followed by a biotinylated goat anti-rat immunoglobulin secondary antibody. Smooth muscle cells and pericytes were identified with a mouse monoclonal antibody against SM a-actin conjugated with alkaline-phosphatase (Sigma, St. Louis, Mo.) and fibroblasts were identified using an anti-vimentin antibody (Sigma, St. Louis, Mo.).
We then immunostained the Shh-induced corneas with a rabbit polyclonal anti-VEGF antibody (Santa Cruz Biotechnology, Santa Cruz, Calif.) with a biotinylated goat anti-rabbit immunoglobulin as secondary antibody.

| Molecule | X-gal staining (Ptc 1 expression) of corneas |
| --- | --- |
| VEGF [reference compound] | did not stain with X-gal |

Same assay, conditions: compared with Shh

| Molecule | mean number of vascular lumens per cross section |
| --- | --- |
| VEGF [reference compound] | higher |

Same assay, conditions: pellet: Myr-Shh 1.5 microg or VEGF 300 ng

| Molecule | maximum vessel lengths [um] | vessel diameters (mean) [um] |
| --- | --- | --- |
| VEGF [reference compound] | 700±70 | 8±3 |

Same assay, conditions: pellet: Myr-Shh 1.5 microg or VEGF 300 ng, day 6

| Molecule | neovascular growth |
| --- | --- |
| VEGF [reference compound] | significant neovascular growth |
